Publication PMC8222354 (2021)

How the values were obtained:
[1] = system: Tt preQ1-I RNA C15U (RNA, riboswitch) CUGGGUCGCAGUAAUCCCAGUUAACAAAACAAG; assay: isothermal titration calorimetry; settings: 100 mM KCl, 2 mM MgCl2; 50 mM MES, pH 6.0, 20 °C
[2] = system: Tt preQ1-I RNA wildtype (RNA, riboswitch) CUGGGUCGCAGUAACCCCAGUUAACAAAACAAG; assay: methylation kinetics, anion-exchange HPLC (kobs versus ligand concentration); settings: 100 mM KCl, 2 mM MgCl2; MES, pH 6.0, 37 °C; apparent Michaelis constant; ligand methylates C15 N3 (covalent methyl transfer)
[3] = system: Tt preQ1-I RNA wildtype (RNA, riboswitch) CUGGGUCGCAGUAACCCCAGUUAACAAAACAAG; assay: isothermal titration calorimetry; settings: 100 mM KCl, 2 mM MgCl2; 50 mM MES, pH 6.0, 20 °C

Kd^ITC [1] [µM]	Km,app [2]	Kd^ITC [3] [µM]	SMILES
72.2 ± 2.1	~ 230 μM	–	COc1nc(N)nc2[nH]cc(CN)c12
–	–	0.043 ± 0.0019	NCc1c[nH]c2nc(N)[nH]c(=O)c12
